Laboratory results taken from publication PMC12172621 (ACS chemical neuroscience, 2024).
Several values for one entry are separate records, joined by “and”; a condition that tells them apart may be missing. Equal entries are not always repeated. Where two headings read alike, the source gives them in different places.

Assays:
[1] = tested on: PK-resistant PrP in Rosa26-targeted ScN2a cells; format: cell-based, mouse
[2] = tested on: total PrP (PrP^C) in uninfected N2a cells; format: cell-based, mouse
[3] = tested on: PK-resistant PrP (PrP^Sc) in ScN2a-RML cells; format: cell-based, mouse; conditions: read-out: EC50, effective concentration for 50% reduction of PrP^Sc levels in ScN2a-RML cells
[4] = tested on: PK-resistant PrP in N2a cells chronically infected with 22L prions; format: cell-based, mouse
[5] = tested on: cultured hippocampal neurons exposed to purified RML PrP^Sc; format: cell-based
[6] = tested on: ScN2a-RML cells
[7] = target: sigma-1 receptor (σ1R, Sigmar1) (Homo sapiens, UniProt Q99720); assay: biochemical; format: binding
Chain of sigma-1 receptor (σ1R, Sigmar1) (Q99720 whole entry, species assumed): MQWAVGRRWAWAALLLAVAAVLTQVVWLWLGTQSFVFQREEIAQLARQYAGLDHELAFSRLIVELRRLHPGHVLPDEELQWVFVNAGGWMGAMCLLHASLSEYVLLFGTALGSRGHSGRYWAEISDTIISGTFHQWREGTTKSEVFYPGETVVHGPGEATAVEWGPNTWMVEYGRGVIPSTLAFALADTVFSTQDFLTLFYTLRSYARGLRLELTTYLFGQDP

[8] = target: sigma-2 receptor (σ2R, Tmem97) (Homo sapiens, UniProt Q5BJF2); assay: biochemical; format: binding
Chain of sigma-2 receptor (σ2R, Tmem97) (Q5BJF2 whole entry, species assumed): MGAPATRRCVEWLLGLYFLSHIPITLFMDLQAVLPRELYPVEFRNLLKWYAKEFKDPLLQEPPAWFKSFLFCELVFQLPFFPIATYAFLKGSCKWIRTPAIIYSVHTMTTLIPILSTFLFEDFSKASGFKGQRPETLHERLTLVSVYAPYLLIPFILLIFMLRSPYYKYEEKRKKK

[9] = tested on: PK-resistant PrP in Sigmar1 + Tmem97 KO cells; format: cell-based, mouse
[10] = cited from earlier work
[11] = tested on: seeding activity of RML prions on recombinant bank vole PrP; format: biochemical; conditions: 2× the EC50 (79 μM)
[12] = in vitro; conditions: mouse
[13] = tested on: PK-resistant PrP in Hrh1^0/0 cells

What does the source list for `CCCN1CCC=C(c2cc(-c3ccc(C)cc3)no2)C1` [PD 144418]?
Levels of PK-resistant PrP relative to DMSO-treated controls [1]: 81.1 ± 5.0%; Levels of total PrP compared to DMSO treatment [2]: 97.5 ± 4.8%; EC50 [3]: 5.2 µM; EC50 ([4]; read-out: EC50 against 22L prions): 12.6 µM; [SRA]min, minimum concentration capable of preventing hippocampal spine retraction [5]: 10 µM; CC50 [6]: > 22 µM; TI, therapeutic index (LC50/EC50) [6]: >4.2; Selectivity for σ1R (σ1R/σ2R) [7]: σ1R (319.1 x); Ki ([7]; read-out: Kiσ1R): 0.0011 µM; Ki ([8]; read-out: Kiσ2R): 0.351 µM; Levels of PK-resistant PrP relative to DMSO-treated controls [9]: 56.6 ± 5.8%

For `COc1ccc(CCN2CCN(CCCc3ccccc3)CC2)cc1OC` [SA 4503, Cutamesine], which EC50 [3] is on record?
Its EC50 is 27.2 µM.

And the “Tolerability in phase II trial” value ([10]; ischemic stroke)?
Its value is “well tolerated”.

And the CC50 [6]?
The CC50 was over 50 µM.

And the Ki ([8]; read-out: Kiσ2R)?
The Ki was 0.0175 µM.

Which results are given for `CN(C)CC1CCOC1(c1ccccc1)c1ccccc1` (stereo not drawn) [ANAVEX2–73, Blarcamesine]?
Levels of PK-resistant PrP relative to DMSO-treated controls [1]: 70.4 ± 1.1% and 42.6 ± 1.7%; Tolerability in phase II trials ([10]; Alzheimer’s and Parkinson’s diseases): well tolerated; Lag phase in RT-QuIC [11]: slight increase in the lag phase; TI, therapeutic index (LC50/EC50) ([6]; mouse): >1.3; CC50 [12]: > 50 µM; Ki [7]: 0.442 µM; Selectivity for σ1R (σ1R/σ2R) [7]: σ1R (4.5 x); Ki [8]: 2.03 µM; Levels of PK-resistant PrP relative to DMSO-treated controls ([9]; 39.5 μM): 57.9 ± 9.0%; Levels of PK-resistant PrP relative to DMSO-treated controls [13]: 25.7 ± 6.2%

With `C[C@@H]1CN(CCCn2c3ccccc3c3ccccc32)C[C@H](C)N1` [rimcazole] as the compound, how does the “Mean number of dendritic spines/μm” value [5] read?
Its value is 0.86 ± 0.02 spines/μm and 0.82 ± 0.02 spines/μm.

And the “[SRA]min, minimum concentration capable of preventing hippocampal spine retraction” value [5]?
Its value is 0.5 µM.

And the CC50 [12]?
Its CC50 is 10 µM.

And the Ki [8]?
Its Ki is 0.0496 µM.

With `CCCCc1oc2ccccc2c1C(=O)c1cc(I)c(OCCN(CC)CC)c(I)c1` [amiodarone] as the compound, how does the Ki [8] read?
Its Ki is 0.171 µM.

With `Cc1ccccc1NC(=N)Nc1ccccc1C` [DTG, ditolylguanidine] as the compound, how does the CC50 [12] read?
The CC50 was over 50 µM.

With `CN1CCN(CCc2ccc(Cl)c(Cl)c2)CC1` [BD1063] as the compound, how does the “Levels of total PrP compared to DMSO treatment” value ([2]; 12.3 μM) read?
Its value is 85.8 ± 4.4%.

And the EC50 [3]?
Its EC50 is 12.3 µM.

And the “Levels of PK-resistant PrP relative to DMSO treatment” value [4]?
Its value is 63.3 ± 1.2%.

What about the “Mean number of dendritic spines/μm” value [5] of the same compound?
The value was 0.69 ± 0.03 spines/μm and 0.63 ± 0.03 spines/μm.

And the “[SRA]min, minimum concentration capable of preventing hippocampal spine retraction” value [5]?
Its value is 1 µM.

And the CC50 [6]?
The CC50 was over 50 µM.

What about the “TI, therapeutic index (LC50/EC50)” value [6] of the same compound?
The value was over 4.1.

What about the “Selectivity for σ1R (σ1R/σ2R)” value [7] of the same compound?
The value was “σ1R (45.7 x)”.

What about the Ki ([7]; read-out: Kiσ1R) of the same compound?
The Ki was 0.0027 µM.

And the Ki ([8]; read-out: Kiσ2R)?
Its Ki is 0.123 µM.

What about the “Levels of PK-resistant PrP relative to DMSO-treated controls” value [9] of the same compound?
Its value is 60.3 ± 4.0%.

What about the “Levels of PK-resistant PrP relative to DMSO-treated controls” value [13] of the same compound?
Its value is 42.6 ± 6.7%.

With `CC(C)=CCN1CC[C@]2(C)c3cc(O)ccc3C[C@H]1[C@H]2C` [(+)-pentazocine] as the compound, how does the CC50 [12] read?
The CC50 was over 50 µM.

Which results are given for `COc1cccc2c1CCCC2CCCN1CCN(C2CCCCC2)CC1` (stereo not drawn) [PB-28]?
Levels of total PrP compared to DMSO treatment [2]: 85.3 ± 3.4%; EC50 [3]: 5.1 µM; [SRA]min, minimum concentration capable of preventing hippocampal spine retraction [5]: 0.1 µM; CC50 [6]: 7.8 µM

With `OC(CCCN1CCN(c2ncc(F)cn2)CC1)c1ccc(F)cc1` (stereo not drawn) [BMY-14802] as the compound, how does the CC50 [12] read?
Its CC50 is over 50 µM.

Which results are given for `CN(C)CCN(C)CCc1ccc(Cl)c(Cl)c1` [BD1047]?
Levels of total PrP compared to DMSO treatment ([2]; 19 μM): 94.9 ± 0.9%; EC50 [3]: 19 µM; Mean number of dendritic spines/μm [5]: 0.74 ± 0.02 spines/μm and 0.78 ± 0.04 spines/μm; [SRA]min, minimum concentration capable of preventing hippocampal spine retraction [5]: 0.5 µM; CC50 [6]: > 25 µM; Ki ([8]; read-out: Kiσ2R): 0.013 µM

For `O=C(CCCN1CCC(O)(c2ccc(Cl)cc2)CC1)c1ccc(F)cc1` [haloperidol], which “Levels of total PrP compared to DMSO treatment” value [2] is on record?
Its value is 92.0 ± 3.5%.

And the “Mean number of dendritic spines/μm” value [5]?
Its value is 0.85 ± 0.03 spines/μm and 0.73 ± 0.04 spines/μm.
